Laboratory results from patent US4450269A, “Mono-5-substituted-3-chloro-4H-1,2,6-thiadiazin-4-one antifungal agents” (FMC Corporation, priority 1980, dated 1984).
Where a name gives a salt, the structure may show the parent alone. Read-outs that look alike come from different tables or passages of the source.

Columns and labels:
Fusarium solani = assay: Soil treatment, bean root rot; type: in vivo; details: Fusarium solani, soil, 336 h; 150 ppm suspension, 3.8 mg active per pot; read-out: Percent Disease Control, seed/soil, bean root rot
Protocol: In a similar manner the soil around a bean seedling was drenched with a sufficient amount of 150 ppm suspension of test chemical to provide 3.8 mg active per pot. Twenty-four hours later the soil was inoculated with a suspension of minced mycelium of Fusarium solani. The inoculated plants were then placed in a greenhouse, evaluated after fourteen days, and percent control of root rot damage calculated. The results, reported in Table III, indicate only a few of the compounds tested are effective in treating Bean Root Rot but that these provide a high degree of control.

Phytophthora infestans [1] = type: cell-based; details: PI, 48 hours
Cercospora beticola = assay: whole plant or invertebrate; details: in Beta vulgaris, foliar, 24 h, read-out: Percent Disease Control, curative, sugar beet leaf spot
Phytophthora infestans [2] = assay: whole plant or invertebrate; type: in vivo; details: for pest or weed control at 150 ppm: Phytophthora infestans, in Solanum lycopersicum, foliar, read-out: Percent Disease Control, foliar, tomato late blight, 150 ppm, protective

Row | Compound | pest or weed control at 150 ppm, 3.8 mg/pot (Fusarium solani) | Spore Germination Rating (Phytophthora infestans [1]; 1.0 ppm) | Spore Germination Rating (Phytophthora infestans [1]; 2.5 ppm) | Spore Germination Rating (Phytophthora infestans [1]; 10 ppm) | Spore Germination Rating (Phytophthora infestans [1]; 40 ppm) | pest or weed control at 150 ppm (Cercospora beticola) | pest or weed control at 150 ppm (Phytophthora infestans [2]) | Spore Germination Rating (Phytophthora infestans [1]; 2.5 ppm, hydrochloride) | Percent Disease Control, foliar, tomato late blight (Phytophthora infestans [2]; 150 ppm, protective, hydrochloride)
1 | O=c1c(Cl)nsnc1Oc1ccccc1 [Compound 2, 3-chloro-5-phenoxy-4H--1,2,6-thiadiazin-4-one] | 100% | 0 (0-10) | 1 (10-40) | 1 (10-40) | 0 (0-10) | 0% | 0% | – | –
2 | Cc1ccc(Oc2nsnc(Cl)c2=O)cc1 [Compound 3, 3-chloro-5-(4-methylphenoxy)-4H--1,2,6-thiadiazin-4-one] | 80% | 3 (60-80) | 2 (40-60) | 0 (0-10) | 0 (0-10) | 0% | 50% | – | –
3 | CC(C)(C)c1ccc(Oc2nsnc(Cl)c2=O)cc1 [Compound 4, 3-chloro-5-(4-tert-butylphnoxy)-4H--1,2,6-thiadiazin-4-one] | 0% | 4 (80-100) | 3 (60-80) | 0 (0-10) | 0 (0-10) | 0% | 0% | – | –
4 | COc1ccc(Oc2nsnc(Cl)c2=O)cc1 [Compound 5, 3-chloro-5-(4-methoxyphenoxy)4H--1,2,6-thiadiazin-4-one] | 50% | 2 (40-60) | 2 (40-60) | 2 (40-60) | 0 (0-10) | 0% | 0% | – | –
5 | CCCCOc1ccc(Oc2nsnc(Cl)c2=O)cc1 [Compound 6, 3-chloro-5-(4-n-butoxyphenoxy)-4H--1,2,6-thiadiazin-4-one] | 0% | 2 (40-60) | 0 (0-10) | 0 (0-10) | 0 (0-10) | 0% | 0% | – | –
6 | CCOC(=O)c1ccc(Oc2nsnc(Cl)c2=O)cc1 [Compound 7, 3-chloro-5-(4-ethoxycarbonylphenoxy)-4H--1,2,6-thiadiazin-4-one] | 98% | 0 (0-10) | 0 (0-10) | 0 (0-10) | 0 (0-10) | 75% | 100% | – | –
7 | CC(=O)Nc1ccc(Oc2nsnc(Cl)c2=O)cc1 [Compound 8, 5-(4-acetylaminophenoxy)-3-chloro-4H--1,2,6-thiadiazin-4-one] | 0% | 4 (80-100) | 4 (80-100) | 0 (0-10) | 0 (0-10) | 0% | 90% | – | –
8 | O=c1c(Cl)nsnc1Oc1ccc([N+](=O)[O-])cc1 [Compound 9, 3-chloro-5-(4-nitrophenoxy)-4H--1,2,6-thiadiazin-4-one] | 0% | 0 (0-10) | 0 (0-10) | 0 (0-10) | 0 (0-10) | 75% | 90% | – | –
9 | N#Cc1ccc(Oc2nsnc(Cl)c2=O)cc1 [Compound 10, 3-chloro-5-(4-cyanophenoxy)-4H--1,2,6-thiadiazin-4-one] | 0% | 0 (0-10) | 0 (0-10) | 0 (0-10) | 1 (10-40) | 95% | 100% | – | –
10 | O=c1c(Cl)nsnc1Oc1c(Cl)cccc1Cl [Compound 18, 3-chloro-5-(2,6-dichlorophenoxy)-4H--1,2,6-thiadiazin-4-one] | – | 3 (60-80) | 0 (0-10) | 0 (0-10) | 0 (0-10) | 98% | 50% | – | –
11 | Nc1ccc(Oc2nsnc(Cl)c2=O)cc1 [Compound 27, 5-(4-aminophenoxy)-3-chloro-4H--1,2,6-thiadiazine-4-one hydrochloride] | – | – | – | – | – | – | – | 3 (60-80) | 98%
12 | O=C(Nc1ccccc1)Oc1ccc(Oc2nsnc(Cl)c2=O)cc1 [Compound 37, 3-chloro-5-[4-(phenylaminocarbonyloxy)phenoxy]-4H-1,2,6,-thiadiazin-4-one] | – | 4 (80-100) | 4 (80-100) | 4 (80-100) | 4 (80-100) | – | 0% | – | –
13 | O=C(OCc1ccccc1)Oc1ccc(Oc2nsnc(Cl)c2=O)cc1 [Compound 38, 3-chloro-5-[4-(phenylmethoxycarbonyloxy)phenoxyl]-4H-1,2,6-thiadiazin-4-one] | – | 4 (80-100) | 4 (80-100) | 4 (80-100) | 3 (60-80) | – | 0% | – | –
14 | CSc1ccc(Oc2nsnc(Cl)c2=O)cc1 [Compound 39, 3-chloro-5-[(4-methylthio)phenoxy]-4H-1,2,6,-thiadiazin-4-one] | – | 4 (80-100) | 4 (80-100) | 3 (60-80) | 3 (60-80) | – | 0% | – | –
15 | C[S+]([O-])c1ccc(Oc2nsnc(Cl)c2=O)cc1 (stereo not shown) [Compound 40, 3-chloro-5-[(4-methylsulfinyl)phenoxy]-4H-1,2,6,-thiadiazin-4-one] | – | 4 (80-100) | 3 (60-80) | 2 (40-60) | 0 (0-10) | – | 75% | – | –
16 | N#CCc1ccc(Oc2nsnc(Cl)c2=O)cc1 [Compound 46, 3-chloro-5-[(4-cyanomethyl)-phenoxy]4H--1,2,6-thiadiazin-4-one] | – | 4 (80-100) | 1 (10-40) | 1 (10-40) | 0 (0-10) | – | 75% | – | –
17 | CC(=O)c1cccc(Oc2nsnc(Cl)c2=O)c1 [Compound 48, 3-(3-acetylphenoxy)-5-chloro-4H--1,2,6-thiadiazin-4-one] | 95% | 0 (0-10) | 0 (0-10) | 0 (0-10) | 0 (0-10) | – | 98% | – | –
18 | COc1ccc(Cl)c(Oc2nsnc(Cl)c2=O)c1 [Compound 51, 3-chloro-5-[(2-chloro-5-methoxy)phenoxy]-4H--1,2,6-thiadiazin-4-one] | – | 4 (80-100) | 3 (60-80) | 1 (10-40) | 0 (0-10) | – | 90% | – | –
19 | COc1cc(Cl)cc(Oc2nsnc(Cl)c2=O)c1 [Compound 52, 3-chloro-5-[(3-chloro-5-methoxy)phenoxy]-4H--1,2,6-thiadiazin-4-one] | – | 4 (80-100) | 0 (0-10) | 0 (0-10) | 0 (0-10) | – | 50% | – | –
20 | O=c1c(Cl)nsnc1Oc1ccc([N+](=O)[O-])cc1Cl [Compound 53, 3-chloro-5-(2-chloro-4-nitrophenoxy)-4H--1,2,6-thiadiazin-4-one] | – | 1 (10-40) | 0 (0-10) | 0 (0-10) | 0 (0-10) | – | 98% | – | –
21 | Cc1ccc(Cl)c(Oc2nsnc(Cl)c2=O)c1 [Compound 56, 3-chloro-5-[(2-chloro-5-methyl)phenoxy]-4H--1,2,6-thiadiazin-4-one] | – | 4 (80-100) | 0 (0-10) | 0 (0-10) | 0 (0-10) | – | 95% | – | –
22 | COc1cc(Oc2nsnc(Cl)c2=O)cc(OC)c1C(C)=O [Compound 61, 3-[(4-acetyl-3,5-dimethoxy)-phenoxy]-5-chloro-4H--1,2,6-thiadiazin-4-one] | – | 4 (80-100) | 4 (80-100) | 3 (60-80) | 0 (0-10) | – | 0% | – | –
